What all share (format): physicochemical
Data set [1] in a line: Stability test, optical purity by chiral HPLC. The settings on record: 40° C./75% RH (closed and open condition), 24 hours. How it is done:
The optical purity was also measured by the following HPLC condition • Detector: UV at 240 nm • Column: […] IE (4.6×250 mm, 5 μm)/Daicel corp. • Column temperature: 40° C. • Mobile phase: n-hexane/ethanol/ethanolamine/acetic acid (65:35:0.5:0.2) • Flow rate: 1.0 mL/min • Injection: 5 μL • Sample temperature: 5° C. • Time span of measurement: 40 min Limit of Quantitation (LOQ): • Compound—RR,RS,SS: 0.05%
The optical purity was measured also with added 0.2% optical isomer.
The solid stability of the exemplary sample of the present invention and the free form obtained above was tested before and after the sample was stored at 40° C./75% RH (closed and open condition) for 24 hours.

Data set [2] is described as follows: Solubility test. As to conditions: for Solubility: 2 hours; for solubility at 2 h: 37 °C, thermodynamic from solid. Here is the method:
About 15 mg of the exemplary sample of the present invention was added to 1 mL of each solvent and was swelled at 37° C. for 2 hours under light resistant condition. After centrifugation, each supernatant was filtered, and 0.7 mL of a mixture of water and acetonitrile (1:1) was added to 0.1 mL of the filtrate.
Following of mobile phase: Control the gradient by mixing the mobile phase A and B as directed in the following table below • Flow rate: 1.0 mL per minutes • Time span of measurement: For 12 minutes after injection

Data set [3] in a line: Hygroscopicity: moisture adsorption/desorption test. As to conditions: relative humidity of 95%, 25° C. Here is the method: The moisture adsorption/desorption test was carried out according to the following conditions.
Approximately 10 to 15 mg of the sample was filled in a dedicated quartz holder, and the weight of each sample at each humidity was continuously measured and recorded under the following conditions.

Converted amounts (≈) assume the structure as drawn.

What is called Solubility is the dissolved amount per volume that the medium holds. Higher therefore signals a readily soluble substance. As for `Cc1ccc(F)c([C@@H](C)[C@H](NS(=O)(=O)c2ccc(Cl)cc2C(N)=O)c2n[nH]c(=O)o2)c1C` [Exemplary Sample, 5-chloro-2-(N-((1S,2R)-2-(6-fluoro-2,3-dimethylphenyl)-1-(5-oxo-4,5-dihydro-1,3,4-oxadiazol-2-yl)propyl)sulfamoyl)benzamide], the “change in the optical purity after storage” value in data set [1] is “No significant change”. Moreover, the Solubility in data set [2] (First fluid for dissolution test, pH 1.2, 37° C.) was 0.23 mg/mL (≈ 476 µM); in data set [2] (water, 37° C.), 0.23 mg/mL (≈ 476 µM). The “hygroscopicity: mass change in moisture adsorption/desorption test” value in data set [3] (listed as obtained product) is “about 0.1%”.
In general, solubility refers to the dissolved amount per volume that the medium holds. Lower therefore signals little dissolved substance. On to `Cc1ccc(F)c([C@@H](C)[C@H](NS(=O)(=O)c2ccc(Cl)cc2C(N)=O)c2n[nH]c(=O)o2)c1C` [Comparative Example, 5-chloro-2-(N-((1S,2R)-2-(6-fluoro-2,3-dimethylphenyl)-1-(5-oxo-4,5-dihydro-1,3,4-oxadiazol-2-yl)propyl)sulfamoyl)benzamide], for which the “change in the optical purity after storage” value in data set [1] is “No significant change”. Also, the solubility at 2 h in data set [2] (50 mM acetate buffer, pH 4, aqueous buffer, Acetate buffer (50 mM, pH 4.0)) was 0.25 mg/mL (≈ 518 µM); in data set [2] (0.5% HPMC, aqueous with cosolvent or surfactant or cyclodextrin) it was 0.19 mg/mL (≈ 393 µM); in data set [2] (First fluid for dissolution test, pH 1.2, simulated gastric fluid, pH 1.2, 37° C.) it was 0.23 mg/mL (≈ 476 µM); in data set [2] (Second fluid for dissolution test, pH 6.8, aqueous buffer, pH 6.8, 37° C.), 0.8 mg/mL (≈ 1660 µM); in data set [2] (water), 0.23 mg/mL (≈ 476 µM). In addition, the “hygroscopicity: mass change in moisture adsorption/desorption test” value in data set [3] (listed as free form) is reported as “about 3.8%”.
